These results are taken from patent publication US20230365673A1, “MEANS FOR REDUCING RADIO- AND CHEMOTHERAPY RESISTANCE AND ADVERSE EFFECTS” (JOHANN WOLFGANG GOETHE-UNIVERSITÄT FRANKFURT AM MAIN, priority 2020, published 2023).

One experiment deals with APTKA orthotopic tumours. Briefly: Orthotopic APTKA organoid model with 5-FU chemotherapy, with or without radiotherapy. Type of experiment: in vivo, C57BL/6 mice. The conditions noted are these: 21 days. The procedure: (§1) FIG. 7: (A) APTKA organoids orthotopic transplantation into C57BL/6 mice followed by 5-fluorouracil (5-FU) chemotherapy (20 mg/Kg/day every 4 days for 21 days—experiment end point). Tumour area (mm3), % invasive area and liver metastasis frequency in untreated and 5-FU treated APTKA tumours (n=2 mice per group). Significant p-value<0.05 by t-test. (B and C) p21, pH2Ax IF and SA-ß gal staining quantifications and representative SA-ß gal staining images among untreated and 5-FU treated IL-1α (1 μg/mL) stimulated human fibroblasts and APTKA conditioned medium treated mouse fibroblasts. Significant p-value<0.05. Results representative of 4 independent experiments. Scale bars=100 μm.
The inventors further investigated, whether therapy resistance of tumours during treatment with cytotoxic chemotherapy is also connected to the senescence behavior of CAFs. For this, the orthotopic APTKA organoid C57BL/6 mice of the inventors' murine model were divided in three groups and subjected to different treatments. The groups consisted of a control group of untreated mice, a second group that was administered 20 mg/kg/day of the cytotoxic chemotherapeutic agent […] (5-FU) every 4 days and a third group that was treated with a therapy based on a concomitant administration of 5-FU and radiation therapy based on a fractionated irradiation schedule (5×2 Gy). After 21 days of treatment, parameters of tumour progression were determined. […] Overall, in vivo administration of the chemotherapy aggravated invasive growth and stimulated formation of liver metastases similarly to irradiation.

The test system of experiment [1] is APTKA medium conditioned mouse fibroblasts. Put plainly: p21, pH2AX and SA-βgal staining of APTKA medium conditioned fibroblasts. The conditions noted are these: 5-FU treated vs non-treated. Type of experiment: cell-based. How it is done:
as §1
In staining experiments, the inventors quantified the presence of nuclear p21, nuclear phosphorylated H2AX (pH2AX) and SA-βgal in APTKA medium conditioned mouse fibroblasts that were either left untreated or treated with 5-FU. […] (FIG. 7B). Overall, these experiments confirmed a chemotherapy induced senescence of the fibroblasts, when exposed to 5-FU.

For experiment [2], the system named is IL-1α stimulated human fibroblasts. Briefly: p21, pH2AX and SA-βgal staining of IL-1α stimulated fibroblasts. It is filed as cell-based. The conditions noted are these: IL-1α 1 μg/mL stimulated, 5-FU treated vs untreated. How it is done:
as §1
Moreover, the inventors investigated the influence of chemotherapy on the IL-1α mediated changes to the tumour microenvironment in human cancer patients. Using staining experiments, the upregulation of pH2AX, p21, and SA-βgal in untreated and 5-FU treated IL-1α (1 μg/mL) stimulated human fibroblasts was quantified. […] Thus, targeting IL-1 in combination with chemotherapy may provide a substantial benefit particularly in tumours that are known to contain inflammatory cancer-associated fibroblasts such as pancreatic cancer, breast cancer or head and neck cancers.

For experiment [3], the system named is primary mouse colon fibroblasts. Briefly: Inflammatory gene expression (RT-qPCR/RNAseq) in fibroblasts treated with APTKA conditioned medium. Type of experiment: cell-based. As to conditions: APTKA conditioned medium, 24 h, RT-qPCR. How it is done: (A) Schematic illustration of APTKA or APTK organoids supernatant collection and treatment of primary mouse colon fibroblasts of unchallenged wildtype C57BL/6 mice. […] (F) Relative expression analysis by RT-qPCR of inflammatory genes in untreated wildtype and APTKA conditioned medium treated fibroblasts in the presence of IKKß inhibitor ML120B (30 μM) and p38 MAPK inhibitor SB203580 (10 μM) for 24 h (n=4 independent wells per group). Data are mean±SD. p<0.05 by one-way ANOVA followed by Tukey's multiple comparisons test. Representative results from one experiment which has been independently repeated 3 times. (G and H) RNA sequencing analysis of APTKA (n=3) and APTK (n=3) organoids: (G) heat map analysis; (H) differentially expressed cytokines in APTKA (Log 2 fold change≤−1) compared to APTK organoids (log 2 fold Change≥1). p-value<0.05. (I) RT-qPCR analysis of inflammatory genes in APTKA conditioned fibroblasts treated with control IgG, α-IL-1α, α-IL-33, α-TNF-α, α-BAFF or α-CXCL16 neutralizing antibodies (2 μg/mL each) for 24 h (n=4 independent wells per group). Data are mean±SD. **** p<0.0001 by one-way ANOVA followed by Tukey's multiple comparisons test. Experiment performed twice. (J) RNA expression profiles of inflammatory genes in APTKA conditioned fibroblasts stimulated for 24 h then subjected to anakinra (10 μg/mL), APTKA fresh or regular medium treatments for another 24 h (n=4 independent wells per condition). Data are mean±SD; p<0.05 by one-way ANOVA followed by Tukey's multiple comparisons test. Representative results from one experiment which has been independently repeated 2 times.
To examine whether APTK and APTKA tumour organoids differentially affect surrounding fibroblasts in tumours directly in a paracrine manner, supernatants were collected from both tumour organoid lines and treated primary intestinal fibroblasts of unchallenged wildtype mice for 24 hours with the two different tumour-conditioned media ex vivo (FIG. 3A). RNAseq analysis confirmed distinct gene expression patterns in fibroblasts exposed to the two organoid supernatants (FIG. 3B).
The inventors then aimed to identify the upstream factors secreted by APTKA organoids that were responsible for activating NF-κB and p38 in fibroblasts. To this end RNAseq analysis of APTK and APTKA tumour organoids were performed and identified several differentially expressed genes encoding cytokines (FIG. 3G, H). Using neutralizing antibodies, NF-κB and p38 inducing cytokines TNFα, IL-1α, IL-33, BAFF or CXCL16 were blocked in APTKA supernatants and expression of Cxcl1, Cxcl2, Cxcl5 and Ilia as inflammatory marker genes in fibroblasts was examined.
To do so, fibroblasts were stimulated for 24 hours with APTKA conditioned medium before adding anakinra, adding fresh APTKA medium or changing medium to regular medium.
A general note: In qPCR the cycle at which signal appears reflects the starting amount.

Experiment [4] has as its system colon fibroblasts. Put plainly: Nitrite concentration by Griess assay in fibroblast supernatants. It is filed as cell-based, mouse. As to conditions: APTKA-conditioned medium plus W1400 1 mM. The procedure: (§2) (A) Schematic illustration of APTKA organoids supernatant collection and treatment of colon fibroblasts from unchallenged wildtype C57BL/6 mice for 12 h followed by 3×2 Gy irradiation. Microscopic, proteomic & transcriptomic analysis were performed 72 h post first irradiation. (B) Microscopic captures of non-irradiated wildtype (WT) and APTKA conditioned fibroblasts. Remaining captures belong to irradiated fibroblasts: WT, IL-1α (1 μg/mL) stimulated WT, and APTKA conditioned media minus or plus anakinra (20 μg/mL) treated fibroblasts. Scale bars=200 μm. (C) Mass spectrometric analysis of matrisome profiles of 3×2 Gy irradiated (n=8) and non-irradiated (n=8) APTKA conditioned fibroblasts. […] (G) Immunoblot analysis of untreated and irradiated APTKA conditioned fibroblasts. Representative results from one experiment which has been independently repeated 2 times. (H) SA-ß gal staining of untreated and irradiated APTKA fibroblasts. Scale bars=100 μm. (I and J) p21 and pH2AX immunofluorescent staining of untreated and irradiated APTKA fibroblasts. Scale bars=[…]. Data are mean±SD. ** […] and *** p<0.001 by t-test. (K) Nitrite concentration determined by Griess assay in conditioned media from WT, APTK media, APTKA media, IL-1α (1 μg/mL) stimulated and APTKA plus anakinra (20 μg/mL) treated fibroblasts for 72 h (n=10 independent wells per group). […]

Experiment [5] relates to colon fibroblasts. Briefly: Oxidative DNA damage by 8-OHdG immunofluorescence in fibroblasts. It is filed as cell-based, mouse. As to conditions: APTKA-conditioned medium plus W1400 1 mM, 72 h. The procedure:
as §2

The subject of experiment [6] is APTKA conditioned fibroblasts. Put plainly: Senescence induction in fibroblasts treated with APTKA-conditioned medium. It is filed as cell-based, mouse. The conditions noted are these: APTKA-conditioned medium plus W1400. The procedure:
as §2

Setting [7] is: 5-FU only, 20 mg/kg/day every 4 days, vs untreated control.
The mark [8] stands for this setting: concomitant 5-FU and radiotherapy (5×2 Gy), vs untreated control.

In the case of `O=c1[nH]cc(F)c(=O)[nH]1` [5-FU, 5-fluorouracil], in the experiment with APTKA orthotopic tumours (setting [7]), the liver metastases result is “have developed liver metastases”; the tumour area entry is given as “significant increase in tumour area”; the “tumour invasiveness (% invasive area)” value was “significant increase in tumour area and tumour invasiveness”. In the experiment on APTKA orthotopic tumours (concomitant 5-FU and radiotherapy (5×2 Gy)), the liver metastases result was “every mouse of this group suffered from liver metastases”. Further, in the experiment on APTKA orthotopic tumours (setting [8]), the invasive area entry is “significant increase in tumour area and invasive area”; the tumour area result is recorded as “significant increase in tumour area”. In addition, in experiment [1], the SA-βgal staining entry is on record as “significant upregulation of SA-βgal”; the “nuclear p21” value was “significant upregulation of SA-βgal and nuclear p21”; the “nuclear phosphorylated H2AX (pH2AX)” value was “significant increase of pH2AX”. For the same compound, in experiment [2], the SA-βgal result is reported as “significant increase of all three biomarkers”, the p21 entry was “significant increase of all three biomarkers” and the pH2AX entry is “significant increase of all three biomarkers”.

Regarding `COc1c(Cl)cc2c([nH]c3cnccc32)c1NC(=O)c1cccnc1C` [ML120B], the “induction of pro-inflammatory genes (Cxcl1, Cxcl2, Cxcl5, Mmp9, Mmp13, Il1a, 116, Tnfa, Nos2)” value in experiment [3] (ML120B 30 μM) is “significantly inhibited the induction of pro-inflammatory genes”.

With `C[S+]([O-])c1ccc(-c2nc(-c3ccncc3)c(-c3ccc(F)cc3)[nH]2)cc1` (centres unmarked) [SB203580], in experiment [3] (SB203580 10 μM), the “induction of pro-inflammatory genes (Cxcl1, Cxcl2, Cxcl5, Mmp9, Mmp13, Il1a, 116, Tnfa, Nos2)” value is reported as “significantly inhibited the induction of pro-inflammatory genes”.

As to `CC(=N)NCc1cccc(CN)c1` [W1400], the nitrite production entry with colon fibroblasts [4] is “blocked nitrite production”. Also, the “oxidative DNA damage (8-OHdG immunofluorescence)” value in the experiment with colon fibroblasts [5] was “prevented oxidative DNA damage”. The senescence induction entry in experiment [6] was “prevented oxidative DNA damage as well as senescence induction”.
